These results are taken from patent publication US11414424B2, “Cardiac sarcomere inhibitors” (Cytokinetics, Inc., priority 2018, dated 2022).

The subject of the assay is bovine cardiac myofibrils. Nature of the assay: Myofibril assay: PK/LDH-coupled steady-state ATPase activity of skinned bovine cardiac myofibrils. The following applies: Ca2+ activating to 75% of maximal rate. It counts as biochemical. The method, boiled down:
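Steady-state ATPase of detergent-skinned bovine left-ventricular myofibrils (1 mg/mL), PK/LDH-coupled NADH read at 340 nm, in PIPES/MgCl2 buffer pH 6.8 with 50 μM ATP, 0.6 mM EGTA and CaCl2 set for 50% or 75% activation. Inhibition of activity measured.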
Regarding `Cc1cnc(N2CC3(C2)C(=O)N(C(C)C)CC(=O)N3Cc2ccc(Cl)cc2)s1` [Compound 44, 5-(4-chlorobenzyl)-8-isopropyl-2-(5-methyl-thiazol-2-yl)-2,5,8-triazaspiro[3.5]nonane-6,9-dione], the “CDMF75 IC15” value is 2.4 µM.

In the case of `Cc1nnc(N2CC3(C2)C(=O)N(C(C)C)CC(=O)N3Cc2ccc(Cl)cc2)o1` [Compound 45, 5-(4-chlorobenzyl)-8-isopropyl-2-(5-methyl-1,3,4-oxadiazol-2-yl)-2,5,8-triazaspiro[3.5]-nonane-6,9-dione], the “CDMF75 IC15” value was found to be 12.8 µM.

On to `CC(C)N1CC(=O)N(Cc2ccc(C(F)(F)F)cc2)C2(CN(c3ccccn3)C2)C1=O` [Compound 46, 8-isopropyl-2-(pyridin-2-yl)-5-(4-(trifluoromethyl)-benzyl)-2,5,8-triazaspiro-[3.5]nonane-6,9-dione], for which the “CDMF75 IC15” value came to 0.9 µM.

For `CC(C)N1CC(=O)N(Cc2ccc(Cl)cc2)C2(CN(c3nc4c(s3)COCC4)C2)C1=O` [Compound 47, 5-(4-chlorobenzyl)-2-(6,7-dihydro-4H-pyrano[4,3-d]thiazol-2-yl)-8-isopropyl-2,5,8-triazaspiro[3.5]-nonane-6,9-dione], the “CDMF75 IC15” value turned out to be 3.7 µM.

As for `CC(C)N1CC(=O)N(Cc2ccc(C(F)(F)F)cc2)C2(CN(c3cc[nH]c(=O)c3)C2)C1=O` [Compound 48, 8-isopropyl-2-(2-oxo-1,2-dihydropyridin-4-yl)-5-(4-(trifluoromethyl)benzyl)-2,5,8-triazaspiro[3.5]-nonane-6,9-dione], the “CDMF75 IC15” value amounted to 1.6 µM.

Regarding `Cc1cc(N2CC3(C2)C(=O)N(C(C)C)CC(=O)N3Cc2ccc(Cl)cc2)cc(C)n1` [Compound 49, 5-(4-chlorobenzyl)-2-(2,6-dimethylpyridin-4-yl)-8-isopropyl-2,5,8-triazaspiro[3.5]nonane-6,9-dione], the “CDMF75 IC15” value is 9.3 µM.

`CC(C)N1CC(=O)N(Cc2ccc(Cl)cc2)C2(CN(c3ccc(Cl)nn3)C2)C1=O` [Compound 50, 5-(4-chlorobenzyl)-2-(6-chloropyridazin-3-yl)-8-isopropyl-2,5,8-triazaspiro[3.5]nonane-6,9-dione]: the “CDMF75 IC15” value worked out at 5.8 µM.

For `COc1ccc(N2CC3(C2)C(=O)N(C(C)C)CC(=O)N3Cc2ccc(Cl)cc2)nn1` [Compound 51, 5-(4-chlorobenzyl)-8-isopropyl-2-(6-methoxypyridazin-3-yl)-2,5,8-triazaspiro-[3.5]nonane-6,9-dione], the “CDMF75 IC15” value was 5.7 µM.

Regarding `CC(C)N1CC(=O)N(Cc2ccc(Cl)cc2)C2(CN(c3ccc(=O)[nH]n3)C2)C1=O` [Compound 52, 5-(4-chlorobenzyl)-8-isopropyl-2-(6-oxo-1,6-dihydropyridazin-3-yl)-2,5,8-triazaspiro[3.5]-nonane-6,9-dione], the “CDMF75 IC15” value turned out to be 17.8 µM.

As for `CC(C)N1CC(=O)N(Cc2ccc(Cl)cc2)C2(CN(c3ccc(C(F)(F)F)nn3)C2)C1=O` [Compound 53, 5-(4-chlorobenzyl)-8-isopropyl-2-(6-(trifluoromethyl)pyridazin-3-yl)-2,5,8-triazaspiro-[3.5]nonane-6,9-dione], the “CDMF75 IC15” value is 14.7 µM.

For the molecule `CC(C)N1CC(=O)N(Cc2ccc(Cl)cc2)C2(CN(c3ccc(C(N)=O)nn3)C2)C1=O` [Compound 54, 6-(5-(4-chlorobenzyl)-8-isopropyl-6,9-dioxo-2,5,8-triazaspiro[3.5]-nonan-2-yl)pyridazine-3-carboxamide], the “CDMF75 IC15” value was 7.8 µM.

As for `Cc1ccc(N2CC3(C2)C(=O)N(C(C)C)CC(=O)N3Cc2ccc(Cl)cc2)nn1` [Compound 55, 5-(4-chlorobenzyl)-8-isopropyl-2-(6-methylpyridazin-3-yl)-2,5,8-triazaspiro[3.5]-nonane-6,9-dione], the “CDMF75 IC15” value was determined as 6.7 µM.

As to `CC(C)N1CC(=O)N(Cc2ccc(Cl)cc2)C2(CN(c3cnc(Cl)cn3)C2)C1=O` [Compound 56, 5-(4-chlorobenzyl)-2-(5-chloropyrazin-2-yl)-8-isopropyl-2,5,8-triazaspiro[3.5]nonane-6,9-dione], the “CDMF75 IC15” value was found to be 18.3 µM.

Take `CCN1CC(=O)N(Cc2ccc(C(F)(F)F)cc2)C2(CN(c3ccc(C#N)cn3)C2)C1=O` [Compound 57, 6-(8-ethyl-6,9-dioxo-5-(4-(trifluoromethyl)benzyl)-2,5,8-triazaspiro[3.5]-nonan-2-yl)nicotinonitrile]: the “CDMF75 IC15” value worked out at 33.3 µM.

`N#Cc1ccc(N2CC3(C2)C(=O)N(C2CCCC2)CC(=O)N3Cc2ccc(C(F)(F)F)cc2)nc1` [Compound 58, 6-(8-cyclopentyl-6,9-dioxo-5-(4-(trifluoromethyl)benzyl)-2,5,8-triazaspiro[3.5]-nonan-2-yl)nicotinonitrile]: the “CDMF75 IC15” value worked out at 4.1 µM.

For `CC(C)CN1CC(=O)N(Cc2ccc(C(F)(F)F)cc2)C2(CN(c3ccc(C#N)cn3)C2)C1=O` [Compound 59, 6-(8-isobutyl-6,9-dioxo-5-(4-(trifluoromethyl)benzyl)-2,5,8-triazaspiro[3.5]-nonan-2-yl)nicotinonitrile], the “CDMF75 IC15” value was determined as 23.4 µM.

Take `CC(C)N1CC(=O)N(Cc2ccc(Cl)cc2)C2(CN(c3cc(Cl)cnn3)C2)C1=O` [Compound 60, 5-(4-chlorobenzyl)-2-(5-chloropyridazin-3-yl)-8-isopropyl-2,5,8-triazaspiro[3.5]nonane-6,9-dione]: the “CDMF75 IC15” value is 14.3 µM.

On to `CC(C)N1CC(=O)N(Cc2ccc(Cl)cc2)C2(CN(c3cnnc(Cl)c3)C2)C1=O` [Compound 61, 5-(4-chlorobenzyl)-2-(6-chloropyridazin-4-yl)-8-isopropyl-2,5,8-triazaspiro[3.5]nonane-6,9-dione], for which the “CDMF75 IC15” value is 22.9 µM.

Turning to `N#Cc1ccc(N2CC3(C2)C(=O)N(C2CCCCC2)CC(=O)N3Cc2ccc(C(F)(F)F)cc2)nc1` [Compound 62, 6-(8-cydohexyl-6,9-dioxo-5-(4-(trifluoromethyl)-benzyl)-2,5,8-triazaspiro[3.5]nonan-2-yl)nicotinonitrile], the “CDMF75 IC15” value is 1.8 µM.

With `CC(C)N1CC(=O)N(Cc2ccc(Cl)cc2)C2(CN(c3ccc(C#N)cn3)C2)C1=O` [Compound 63, 6-(5-(4-chlorobenzyl)-8-isopropyl-6,9-dioxo-2,5,8-triazaspiro[3.5]nonan-2-yl)nicotinonitrile], the “CDMF75 IC15” value is 5.1 µM.

With `COC(=O)N1CC2(C1)C(=O)N(C(C)C)CC(=O)N2Cc1ccc(Cl)cc1` [Compound 64, methyl 5-(4-chlorobenzyl)-8-isopropyl-6,9-dioxo-2,5,8-triazaspiro[3.5]-nonane-2-carboxylate], the “CDMF75 IC15” value was determined as 23.6 µM.

As to `CNC(=O)N1CC2(C1)C(=O)N(C(C)C)CC(=O)N2Cc1ccc(Cl)cc1` [Compound 65, 5-(4-chlorobenzyl)-8-isopropyl-N-methyl-6,9-dioxo-2,5,8-triazaspiro[3.5]nonane-2-carboxamide], the “CDMF75 IC15” value was 9.8 µM.

As to `CC(C)N1CC(=O)N(Cc2ccc(Cl)cc2)C2(CN(C(=O)Nc3cnn(C)c3)C2)C1=O` [Compound 66, 5-(4-chlorobenzyl)-8-isopropyl-N-(1-methyl-1H-pyrazol-4-yl)-6,9-dioxo-2,5,8-triazaspiro[3.5]-nonane-2-carboxamide], the “CDMF75 IC15” value came out at 17.6 µM.

`CNC(=O)N1CC2(C1)C(=O)N(C(C)C)CC(=O)N2Cc1ccc(C(F)(F)F)cc1` [Compound 67, 8-isopropyl-N-methyl-6,9-dioxo-5-(4-(trifluoromethyl)benzyl)-2,5,8-triazaspiro[3.5]-nonane-2-carboxamide]: the “CDMF75 IC15” value worked out at 6.0 µM.

Turning to `CC(C)N1CC(=O)N(Cc2ccc(C(F)(F)F)cc2)C2(CN(C(N)=O)C2)C1=O` [Compound 68, 8-isopropyl-6,9-dioxo-5-(4-(trifluoromethyl)benzyl)-2,5,8-triazaspiro[3.5]-nonane-2-carboxamide], the “CDMF75 IC15” value came out at 9.2 µM.

Regarding `CC(C)N1CC(=O)N(Cc2ccc(C(F)(F)F)cc2)C2(CN(C=O)C2)C1=O` [Compound 69, 8-isopropyl-6,9-dioxo-5-(4-(trifluoromethyl)benzyl)-2,5,8-triazaspiro[3.5]-nonane-2-carbaldehyde], the “CDMF75 IC15” value was found to be 15.4 µM.

`CNC(=O)N1CC2(C1)C(=O)N(C1CCCC1)CC(=O)N2Cc1ccc(C(F)(F)F)cc1` [Compound 70, 8-cyclopentyl-N-methyl-6,9-dioxo-5-(4-(trifluoromethyl)benzyl)-2,5,8-triazaspiro[3.5]-nonane-2-carboxamide]: the “CDMF75 IC15” value was 9.5 µM.

For `CC(C)N1CC(=O)N(Cc2ccc(Cl)cc2)C2(CCN(c3ccncn3)C2)C1=O` (centres unmarked) [Compound 71, 6-(4-chlorobenzyl)-9-isopropyl-2-(pyrimidin-4-yl)-2,6,9-triazaspiro-[4.5]decane-7,10-dione], the “CDMF75 IC15” value stood at 4.8 µM.

Turning to `Cc1cc(N2CCC3(C2)C(=O)N(C(C)C)CC(=O)N3Cc2ccc(C(F)(F)F)cc2)ccn1` (centres unmarked) [Compound 72, 9-isopropyl-2-(2-methylpyridin-4-yl)-6-(4-(trifluoromethyl)benzyl)-2,6,9-triazaspiro[4.5]-decane-7,10-dione], the “CDMF75 IC15” value worked out at 9.0 µM.

Regarding `CC(C)N1CC(=O)N(Cc2ccc(C(F)(F)F)cc2)C2(CCN(c3cccnn3)C2)C1=O` (centres unmarked) [Compound 73, 9-isopropyl-2-(pyridazin-3-yl)-6-(4-(trifluoromethyl)benzyl)-2,6,9-triazaspiro[4.5]-decane-7,10-dione], the “CDMF75 IC15” value amounted to 5.7 µM.

For the molecule `CC(C)N1CC(=O)N(Cc2ccc(Cl)cc2)C2(CCN(c3cnccn3)C2)C1=O` (centres unmarked) [Compound 74, 6-(4-chlorobenzyl)-9-isopropyl-2-(pyrazin-2-yl)-2,6,9-triazaspiro[4.5]-decane-7,10-dione], the “CDMF75 IC15” value came to 4.2 µM.

For the molecule `Cc1ccc(N2CCC3(C2)C(=O)N(C(C)C)CC(=O)N3Cc2ccc(Cl)cc2)nc1` (centres unmarked) [Compound 75, 6-(4-chlorobenzyl)-9-isopropyl-2-(5-methylpyridin-2-yl)-2,6,9-triazaspiro[4.5]-decane-7,10-dione], the “CDMF75 IC15” value came to 1.1 µM.
